The data set deals with New Zealand white rabbit eyes. The experiment in a line: Eye irritation in rabbit eyes (Draize Test). It is filed as in vivo. As to conditions: 50 μl of 1% droperidol; slit lamp biomicroscope. The protocol: 50 μl of 1% droperidol was used to test for eye irritation in New Zealand white rabbit eyes using the standard procedure of the Draize Test. […] Eyedrops were instilled in the eyes, and the responses of the eyes were examined with a slit lamp biomicroscope.

Take `O=C(CCCN1CC=C(n2c(=O)[nH]c3ccccc32)CC1)c1ccc(F)cc1` [droperidol, Droperidol]: the Eye irritation result is reported as “either absent or insignificant”.

Source of the values: US20030069232A1, “Topical treatment of ocular hypertension, glaucoma, ischemic retinopathy and age-related macular degeneration with ophthalmic formulation of dopamine antagonists” (priority 1999, published 2003).
